Patent publication US11466016B2, “Pharmaceutical compounds” (priority 2018, dated 2022)
Where a name gives a salt, the structure may show the parent alone. Read-outs that look alike come from different tables or passages of the source. Each block holds one compound with its values, some of them ahead of it.

Molecular target: SHP2 (Homo sapiens (Human), UniProt Q06124)
Assay: SHP2 Biochemical Assay (DiFMUP conversion, pIRS1 activating peptide)
Protocol: SHP2 activity was monitored by measuring the conversion of the surrogate substrate 6,8-difluoromethylumbelliferyl phosphate (DiFMUP) to the fluorescent product, 6,8-difluoromethylumbelliferone (DiFMU).
SHP2 was pre-incubated with test compounds and the activating peptide pIRS1 (H2N-LN(pY)IDLDLV-(PEG)8-LST(pY)ASINFQK-amide) for 30 min, prior to addition of the […] (DiFMUP), (Thermo Fisher D6567). […] Rates of reaction were then measured over 30 min by monitoring fluorescence on a BMG Pherastar reader at excitation 360 nm/emission 450 nm. IC50 values were calculated from the normalized dose-response plots using four parameter logistic curve fit.

[1] = DiFMUP substrate, 0.25 μM pIRS1 peptide, 30 min pre-incubation, average where more than one data point, read-out: SHP2 (IC50)

SMILES: CC(C)(C)NC(=O)Cn1cc2c(Cl)c(-c3c[nH]c4nc(N5[C@@H]6CC[C@H]5C[C@@H](N)C6)cnc34)ccc2n1 [Example 60, 2-(5-{3-[endo-3-amino-8-azabicyclo[3.2.1]octan-8-yl]-5H-pyrrolo[2,3-b]pyrazin-7-yl}-4-chloro-2H-indazol-2-yl)-N-tert-butylacetamide]
IC50 [1]: 12 nM

SMILES: Cn1nc2ccc(-c3c[nH]c4nc(N5[C@@H]6CC[C@H]5C[C@@H](N)C6)cnc34)c(Cl)c2c1CC#N [Example 61, 2-(5-{3-[endo-3-amino-8-azabicyclo[3.2.1]octan-8-yl]-5H-pyrrolo[2,3-b]pyrazin-7-yl}-4-chloro-2-methyl-2H-indazol-3-yl)acetonitrile]
IC50 [1]: 130 nM

SMILES: Cn1nc2ccc(-c3c[nH]c4nc(N5[C@@H]6CC[C@H]5C[C@@H](N)C6)cnc34)c(Cl)c2c1C#N [Example 62, 5-{3-[endo-3-amino-8-azabicyclo[3.2.1]octan-8-yl]-5H-pyrrolo[2,3-b]pyrazin-7-yl}-4-chloro-2-methyl-2H-indazole-3-carbonitrile]
IC50 [1]: 7.1 nM

SMILES: Cn1cc2c(Cl)c(-c3c[nH]c4nc(N5[C@H]6CC[C@@H]5[C@@H](F)[C@@H](N)C6)cnc34)ccc2n1 [Example 64, (1R,2S,3S,5S)-8-[7-(4-chloro-2-methyl-2H-indazol-5-yl)-5H-pyrrolo[2,3-b]pyrazin-3-yl]-2-fluoro-8-azabicyclo[3.2.1]octan-3-amine]
IC50 [1]: 7.7 nM

SMILES: Cn1cc2c(Cl)c(-c3c[nH]c4nc(N5[C@@H]6CC[C@H]5[C@H](F)[C@@H](N)C6)cnc34)ccc2n1 [Example 65, (1S,2R,3S,5R)-8-[7-(4-chloro-2-methyl-2H-indazol-5-yl)-5H-pyrrolo[2,3-b]pyrazin-3-yl]-2-fluoro-8-azabicyclo[3.2.1]octan-3-amine]
IC50 [1]: 37 nM

SMILES: N[C@H]1C[C@H]2CC[C@@H](C1)N2c1cnc2c(-c3ccc4c(c3Cl)C(F)(F)C(=O)N4)c[nH]c2n1 [Example 66, 5-{3-[endo-3-amino-8-azabicyclo[3.2.1]octan-8-yl]-5H-pyrrolo[2,3-b]pyrazin-7-yl}-4-chloro-3,3-difluoro-2,3-dihydro-1H-indol-2-one, dihydrochloride salt]
IC50 [1]: 4.4 nM

SMILES: Cn1cc2c(Cl)c(-c3c[nH]c4nc(N5[C@H]6CC[C@@H]5[C@@H](F)[C@H](N)C6)cnc34)ccc2n1 [Example 67, (1R,2S,3R,5S)-8-[7-(4-chloro-2-methyl-2H-indazol-5-yl)-5H-pyrrolo[2,3-b]pyrazin-3-yl]-2-fluoro-8-azabicyclo[3.2.1]octan-3-amine]
IC50 [1]: 57 nM

SMILES: Cn1ccnc1Cn1cc2c(Cl)c(-c3c[nH]c4nc(N5[C@@H]6CC[C@H]5C[C@@H](N)C6)cnc34)ccc2n1 [Example 68, endo-8-(7-{4-chloro-2-[(1-methyl-1H-imidazol-2-yl)methyl]-2H-indazol-5-yl}-5H-pyrrolo[2,3-b]pyrazin-3-yl)-8-azabicyclo[3.2.1]octan-3-amine, trihydrochloride salt]
IC50: 21 nM

SMILES: Cc1noc(Cn2cc3c(Cl)c(-c4c[nH]c5nc(N6[C@@H]7CC[C@H]6C[C@@H](N)C7)cnc45)ccc3n2)n1 [Example 69, endo-8-(7-{4-chloro-2-[(3-methyl-1,2,4-oxadiazol-5-yl)methyl]-2H-indazol-5-yl}-5H-pyrrolo[2,3-b]pyrazin-3-yl)-8-azabicyclo[3.2.1]octan-3-amine, hydrochloride salt]
IC50: 6.8 nM

SMILES: Cn1ccc(Cn2cc3c(Cl)c(-c4c[nH]c5nc(N6[C@@H]7CC[C@H]6C[C@@H](N)C7)cnc45)ccc3n2)n1 [Example 70, endo-8-(7-{4-chloro-2-[(1-methyl-1H-pyrazol-3-yl)methyl]-2H-indazol-5-yl}-5H-pyrrolo[2,3-b]pyrazin-3-yl)-8-azabicyclo[3.2.1]octan-3-amine, trihydrochloride salt]
IC50 [1]: 8.8 nM

SMILES: Cn1ccc2c(Cl)c(-c3c[nH]c4nc(N5CC[C@H](N)[C@H](F)C5)cnc34)ccc2c1=O [Example 71, 6-{3-[(3R,4S)-4-amino-3-fluoropiperidin-1-yl]-5H-pyrrolo[2,3-b]pyrazin-7-yl}-5-chloro-2-methyl-1,2-dihydroisoquinolin-1-one, hydrochloride salt]
IC50 [1]: 55 nM

SMILES: CN1Cc2c(ccc(-c3c[nH]c4nc(N5CC[C@H](N)[C@H](F)C5)cnc34)c2Cl)C1=O [Example 72, 5-{3-[(3R,4S)-4-amino-3-fluoropiperidin-1-yl]-5H-pyrrolo[2,3-b]pyrazin-7-yl}-4-chloro-2-methyl-2,3-dihydro-1H-isoindol-1-one, hydrochloride salt]
SHP2 (percent at stated concentration): 50%@0.30 uM

SMILES: Cc1nc2c(-c3ccc4nn(C)cc4c3Cl)n[nH]c2nc1N1[C@H]2CC[C@@H]1[C@@H](F)[C@@H](N)C2 [Example 73, (1R,2S,3S,5S)-8-[3-(4-chloro-2-methyl-2H-indazol-5-yl)-5-methyl-1H-pyrazolo[3,4-b]pyrazin-6-yl]-2-fluoro-8-azabicyclo[3.2.1]octan-3-amine, hydrochloride salt]
IC50 [1]: 9.8 nM

IC50 [1]: 89 nM
SMILES: Cn1cnc2ccc(-c3c[nH]c4nc(N5CC[C@H](N)[C@H](F)C5)cnc34)c(Cl)c21 [Example 74, (3R,4S)-1-[7-(7-chloro-1-methyl-1H-1,3-benzodiazol-6-yl)-5H-pyrrolo[2,3-b]pyrazin-3-yl]-3-fluoropiperidin-4-amine]

SMILES: Cc1nc2c(-c3ccc4nn(C)cc4c3Cl)n[nH]c2nc1N1CC[C@H](N)[C@H](F)C1 [Example 75, (3R,4S)-1-[3-(4-chloro-2-methyl-2H-indazol-5-yl)-5-methyl-1H-pyrazolo[3,4-b]pyrazin-6-yl]-3-fluoropiperidin-4-amine, hydrochloride]
IC50 [1]: 130 nM

SMILES: Cn1c(=O)sc2ccc(-c3c[nH]c4nc(N5CC[C@H](N)[C@H](F)C5)cnc34)c(Cl)c21 [Example 76, 5-{3-[(3R,4S)-4-amino-3-fluoropiperidin-1-yl]-5H-pyrrolo[2,3-b]pyrazin-7-yl}-4-chloro-3-methyl-2,3-dihydro-1,3-benzothiazol-2-one, hydrochloride]
IC50 [1]: 440 nM

SMILES: Cn1cnc2ccc(-c3c[nH]c4nc(N5[C@@H]6CC[C@H]5[C@@H](F)[C@@H](N)C6)cnc34)c(Cl)c2c1=O [Example 77, 6-{3-[(1S,2S,3S,5R)-3-amino-2-fluoro-8-azabicyclo[3.2.1]octan-8-yl]-5H-pyrrolo[2,3-b]pyrazin-7-yl}-5-chloro-3-methyl-3,4-dihydroquinazolin-4-one]
IC50: 18 nM

SMILES: Cn1cc2c(Cl)c(-c3n[nH]c4nc(N5[C@H]6CC[C@@H]5[C@@H](F)[C@@H](N)C6)c(CO)nc34)ccc2n1 [Example 79, {6-[(1R,2S,3S,5S)-3-amino-2-fluoro-8-azabicyclo[3.2.1]octan-8-yl]-3-(4-chloro-2-methyl-2H-indazol-5-yl)-1H-pyrazolo[3,4-b]pyrazin-5-yl}methanol]
IC50 [1]: 9.1 nM

SMILES: Cn1nc2ccc(-c3n[nH]c4nc(N5[C@H]6CC[C@@H]5[C@@H](F)[C@@H](N)C6)c(CO)nc34)c(Cl)c2c1Cl [Example 80, {6-[(1R,2S,3S,5S)-3-amino-2-fluoro-8-azabicyclo[3.2.1]octan-8-yl]-3-(3,4-dichloro-2-methyl-2H-indazol-5-yl)-1H-pyrazolo[3,4-b]pyrazin-5-yl}methanol]
IC50 [1]: 5.2 nM

SMILES: Cn1cc2c(Cl)c(-c3n[nH]c4nc(N5[C@@H]6CC[C@H]5[C@@H](F)[C@@H](N)C6)c(CO)nc34)ccc2n1 [Example 81, {6-[(1S,2S,3S,5R)-3-amino-2-fluoro-8-azabicyclo[3.2.1]octan-8-yl]-3-(4-chloro-2-methyl-2H-indazol-5-yl)-1H-pyrazolo[3,4-b]pyrazin-5-yl}methanol]
IC50: 15 nM

SMILES: CCn1cc2c(Cl)c(-c3n[nH]c4nc(N5[C@H]6CC[C@@H]5[C@@H](F)[C@@H](N)C6)c(CO)nc34)ccc2n1 [Example 82, {6-[(1R,2S,3S,5S)-3-amino-2-fluoro-8-azabicyclo[3.2.1]octan-8-yl]-3-(4-chloro-2-ethyl-2H-indazol-5-yl)-1H-pyrazolo[3,4-b]pyrazin-5-yl}methanol]
IC50 [1]: 12 nM

SMILES: Cn1nc2ccc(-c3n[nH]c4nc(N5[C@H]6CC[C@@H]5[C@@H](F)[C@@H](N)C6)c(CO)nc34)c(F)c2c1Cl [Example 83, {6-[(1R,2S,3S,5S)-3-amino-2-fluoro-8-azabicyclo[3.2.1]octan-8-yl]-3-(3-chloro-4-fluoro-2-methyl-2H-indazol-5-yl)-1H-pyrazolo[3,4-b]pyrazin-5-yl}methanol]
IC50 [1]: 8.6 nM

SMILES: COc1cnc2ccc(-c3n[nH]c4nc(N5[C@H]6CC[C@@H]5[C@@H](F)[C@@H](N)C6)c(CO)nc34)c(Cl)c2n1 [Example 84, {6-[(1R,2S,3S,5S)-3-amino-2-fluoro-8-azabicyclo[3.2.1]octan-8-yl]-3-(5-chloro-3-methoxyquinoxalin-6-yl)-1H-pyrazolo[3,4-b]pyrazin-5-yl}methanol]
IC50 [1]: 7.4 nM

SMILES: Cn1nc2ccc(-c3n[nH]c4nc(N5[C@@H]6CC[C@H]5[C@@H](F)[C@@H](N)C6)c(CO)nc34)c(Cl)c2c1Cl [Example 85, {6-[(1S,2S,3S,5R)-3-amino-2-fluoro-8-azabicyclo[3.2.1]octan-8-yl]-3-(3,4-dichloro-2-methyl-2H-indazol-5-yl)-1H-pyrazolo[3,4-b]pyrazin-5-yl}methanol]
IC50 [1]: 7.5 nM

SMILES: Cn1nc2ccc(-c3n[nH]c4nc(N5[C@@H]6CC[C@H]5CNC6)c(CO)nc34)c(Cl)c2c1Cl [Example 86, {6-[3,8-diazabicyclo[3.2.1]octan-8-yl]-3-(3,4-dichloro-2-methyl-2H-indazol-5-yl)-1H-pyrazolo[3,4-b]pyrazin-5-yl}methanol]
IC50 [1]: 7.2 nM

SMILES: Cn1nc2ccc(-c3n[nH]c4nc(N5[C@@H]6CC[C@H]5[C@@H](F)[C@@H](N)C6)c(CO)nc34)c(F)c2c1Cl [Example 87, {6-[(1S,2S,3S,5R)-3-amino-2-fluoro-8-azabicyclo[3.2.1]octan-8-yl]-3-(3-chloro-4-fluoro-2-methyl-2H-indazol-5-yl)-1H-pyrazolo[3,4-b]pyrazin-5-yl}methanol]
IC50 [1]: 8 nM
